Results published in article PMC12197453 (Viruses, 2025).

How the values were obtained:
[1] = tested on: rJEV-EGFP; test: Inhibition of rJEV-EGFP replication in 293T cells (green fluorescence); assay type: cell-based, Japanese encephalitis virus; conditions: 10 μM, 48 h post-treatment, vs DMSO
[2] = tested on: rJEV-EGFP; test: Inhibition of rJEV-EGFP replication in BHK-21 cells (green fluorescence); assay type: cell-based, Japanese encephalitis virus; conditions: 10 μM, 48 h post-treatment, vs DMSO
[3] = tested on: JEV-GFP replicon; test: Inhibition of JEV-GFP replicon replication in transfected BHK-21 cells; assay type: cell-based, Japanese encephalitis virus; conditions: 48 h, BHK-21 transfectants; for NS1 gene expression of the JEV-GFP replicon (library screening): screen of 20 bioactive compounds, qRT-PCR
[4] = tested on: rJEV-EGFP; test: Inhibition of rJEV-EGFP replication in A549 cells; assay type: cell-based, Japanese encephalitis virus; conditions: for intensities of green fluorescence produced by rJEV-EGFP replication: 10 μM, vs DMSO; for intensities of green fluorescence produced by rJEV-EGFP replication / levels of the JEV NS1 gene (qRT-PCR): 48 h post-treatment, A549 cells; for levels of the JEV NS1 gene (qRT-PCR): different concentrations; for SI (Selectivity Index): SI = CC50/EC50, A549 cells
[5] = tested on: A549 cells; test: Cytotoxicity assay (Cell Counting Kit-8) in A549 cells; assay type: cell-based; conditions: 48 h; for cytotoxicity (cell viability): 10 μM; for CC50: Cell Counting Kit-8, read-out: CC50 (50% cytotoxic concentration)
[6] = tested on: 293T cells; test: Cytotoxicity (Cell Counting Kit-8) in 293T cells; assay type: cell-based; conditions: 10 μM, 48 h
[7] = tested on: BHK-21 cells; test: Cytotoxicity (Cell Counting Kit-8) in BHK-21 cells; assay type: cell-based; conditions: 10 μM, 48 h
[8] = Cytotoxicity assay (Cell Counting Kit-8) in A549 cells; assay type: cell-based; conditions: human, Cell Counting Kit-8, read-out: CC50 (50% cytotoxic concentration)

With C#C[C@@]1(O)[C@H](O)[C@@H](CO)O[C@H]1n1ccc2c(N)ncnc21 [NITD008] as the compound, how does the “intensities of green fluorescence produced by rJEV-EGFP replication” value (from here on “intensities”) [1] read?
Its value is “remarkably reduced”.

And the “intensities” value [2]?
The value was “remarkably reduced”.

What about the “levels of the NS1 gene of JEV-GFP replicon (qRT-PCR)” value (from here on “levels of the NS1 gene … (qRT-PCR)”) ([3]; 10 μM, vs DMSO) of the same compound?
Its value is “reduced”.

And the “NS1 gene expression of the JEV-GFP replicon (library screening)” value (shortened to “NS1 gene expression”) [3]?
Its value is “higher inhibitory effect”.

And the “intensities” value [4]?
Its value is “remarkably reduced”.

What about the “levels of the JEV NS1 gene (qRT-PCR)” value [4] of the same compound?
Its value is “significantly decreased”.

And the “cytotoxicity (cell viability)” value [5]?
The value was “no significant cytotoxicities”.

And the CC50 [5]?
The CC50 was 37.8 µM.

What about the “cytotoxicity (cell viability)” value [6] of the same compound?
The value was “no significant cytotoxicities”.

What about the “cytotoxicity (cell viability)” value [7] of the same compound?
The value was “no significant cytotoxicities”.

Which “intensities” value [1] does the source give for COc1cc(NC(C(=O)N2CCc3ccc(OC(F)(F)F)cc32)c2ccc(Cl)cc2)cc(OCCCC(=O)O)c1 (stereo not shown) [JNJ-A07] here?
The value was “remarkably reduced”.

What about the “intensities” value [2] of the same compound?
Its value is “remarkably reduced”.

And the “intensity of green fluorescence of JEV-GFP replicon” value ([3]; 10 μM, vs DMSO)?
The value was “significantly reduced”.

What about the “levels of the NS1 gene … (qRT-PCR)” value ([3]; 10 μM, vs DMSO) of the same compound?
The value was “reduced”.

And the “NS1 gene expression” value [3]?
Its value is “higher inhibitory effect”.

What about the “intensities” value [4] of the same compound?
Its value is “remarkably reduced”.

And the “SI (Selectivity Index)” value [4]?
The value was 2296.92.

What about the “levels of the JEV NS1 gene (qRT-PCR)” value [4] of the same compound?
The value was “significantly decreased”.

And the “cytotoxicity (cell viability)” value [5]?
The value was “no significant cytotoxicities”.

And the CC50 [5]?
Its CC50 is 29.9 µM.

And the “cytotoxicity (cell viability)” value [6]?
The value was “no significant cytotoxicities”.

And the “cytotoxicity (cell viability)” value [7]?
The value was “no significant cytotoxicities”.

For C=C[C@H]1C[N@@]2CC[C@H]1C[C@H]2[C@H](O)c1ccnc2ccc(OC)cc12 [Quinine], which “intensities” value [1] is on record?
The value was “remarkably reduced”.

What about the “intensities” value [2] of the same compound?
The value was “remarkably reduced”.

And the “levels of the NS1 gene … (qRT-PCR)” value ([3]; 10 μM, vs DMSO)?
The value was “reduced”.

And the “NS1 gene expression” value [3]?
The value was “higher inhibitory effect”.

What about the “intensities” value [4] of the same compound?
The value was “remarkably reduced”.

And the “SI (Selectivity Index)” value [4]?
Its value is 282.47.

And the “SI (Selectivity Index)” value ([4]; listed as quinine)?
The value was 334.16.

What about the “levels of the JEV NS1 gene (qRT-PCR)” value [4] of the same compound?
The value was “significantly decreased”.

And the “cytotoxicity (cell viability)” value [5]?
The value was “no significant cytotoxicities”.

And the CC50 at 48 h [8]?
The CC50 at 48 h was 45.8 µM.

What about the “cytotoxicity (cell viability)” value [6] of the same compound?
The value was “no significant cytotoxicities”.

And the “cytotoxicity (cell viability)” value [7]?
The value was “no significant cytotoxicities”.
